This note sets out measurements from ChEMBL document CHEMBL1817626, “The structure-activity relationship of urea derivatives as anti-tuberculosis agents” (Bioorg Med Chem, 2011).

Structures are written as SMILES. Converted amounts (≈) assume the structure as drawn. The source made the active and inactive calls. The rule behind the calls is not given here. A value given as a limit tells only on which side of the number the result lay.

Test [1] has as its system Mycolicibacterium smegmatis. Nature of the test: microbe, parasite or virus in culture. The note with it: str. MC2 155, 168 h.
Test [2] deals with Escherichia coli. Description: Antibacterial activity against Escherichia coli […] TolC. It is filed as functional.
In the next test the test system is Staphylococcus aureus. Nature of the test: Antibacterial activity against Staphylococcus aureus. It is filed as functional.
The next test relates to Enterococcus faecium. Nature of the test: Antibacterial activity against Enterococcus faecium. The format is functional.
The target in test [3] is T1, Epoxide hydrolase B (Mycobacterium tuberculosis) (UniProt P95276).
T1 sequence (whole entry): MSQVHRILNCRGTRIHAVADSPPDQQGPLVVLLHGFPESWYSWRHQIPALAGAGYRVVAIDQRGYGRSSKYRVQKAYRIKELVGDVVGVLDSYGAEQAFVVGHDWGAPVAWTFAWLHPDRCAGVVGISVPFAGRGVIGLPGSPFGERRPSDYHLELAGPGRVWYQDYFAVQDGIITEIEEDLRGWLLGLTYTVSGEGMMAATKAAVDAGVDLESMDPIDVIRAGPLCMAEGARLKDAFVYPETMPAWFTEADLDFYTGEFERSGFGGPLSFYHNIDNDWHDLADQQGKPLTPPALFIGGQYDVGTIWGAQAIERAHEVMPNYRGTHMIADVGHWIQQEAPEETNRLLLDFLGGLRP
Nature of the test: Inhibition of Mycobacterium tuberculosis recombinant EphB expressed in Escherichia coli BL21 using CMNPC as substrate at 10 nM after 30 mins by fluorescent assay relative to control.

Test [4] deals with T2, Bifunctional epoxide hydrolase 2 (Homo sapiens, UniProt P34913).
T2 sequence (P34913 whole entry): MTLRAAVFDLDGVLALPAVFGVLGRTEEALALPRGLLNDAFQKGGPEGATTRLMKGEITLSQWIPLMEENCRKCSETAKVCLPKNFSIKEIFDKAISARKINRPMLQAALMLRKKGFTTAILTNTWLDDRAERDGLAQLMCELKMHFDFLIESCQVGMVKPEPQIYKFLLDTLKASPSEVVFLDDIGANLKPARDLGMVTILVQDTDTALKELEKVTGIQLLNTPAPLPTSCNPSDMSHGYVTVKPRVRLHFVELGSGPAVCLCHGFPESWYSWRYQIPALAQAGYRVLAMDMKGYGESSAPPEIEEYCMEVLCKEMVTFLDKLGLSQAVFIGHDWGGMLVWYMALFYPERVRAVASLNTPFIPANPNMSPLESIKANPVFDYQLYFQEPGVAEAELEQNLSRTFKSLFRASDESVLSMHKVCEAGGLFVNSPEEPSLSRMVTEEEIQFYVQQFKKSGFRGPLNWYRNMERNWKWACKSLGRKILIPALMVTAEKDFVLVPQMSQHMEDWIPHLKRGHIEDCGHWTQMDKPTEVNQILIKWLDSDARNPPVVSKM
Nature of the test: Inhibition of human recombinant soluble epoxide hydrolase using CMNPC as substrate after 10 mins by fluorescent assay.

Test [5] has as its target T3, Hydrolase, alpha/beta hydrolase fold family (Mycobacterium tuberculosis) (UniProt O69638).
T3 sequence (whole entry): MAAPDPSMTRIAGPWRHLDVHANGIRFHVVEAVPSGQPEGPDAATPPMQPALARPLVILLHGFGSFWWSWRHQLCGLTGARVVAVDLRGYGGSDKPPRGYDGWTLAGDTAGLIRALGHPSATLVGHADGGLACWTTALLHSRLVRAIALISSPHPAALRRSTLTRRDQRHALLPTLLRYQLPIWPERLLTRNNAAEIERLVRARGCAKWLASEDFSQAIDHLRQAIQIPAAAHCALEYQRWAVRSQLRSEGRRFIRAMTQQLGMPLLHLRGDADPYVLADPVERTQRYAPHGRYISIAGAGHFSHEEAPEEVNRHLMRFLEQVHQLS
Description: Inhibition of Mycobacterium tuberculosis recombinant EphE expressed in Escherichia coli BL21 using CMNPC as substrate at 10 nM after 30 mins by fluorescent assay relative to control.

Another test relates to Enterococcus faecalis. Nature of the test: Antibacterial activity against Enterococcus faecalis. It is filed as functional.
The test system of the next test is Vero. Description: Cytotoxicity against african green monkey Vero cells after 72 hrs by MTT assay. The format is cell-based. The note with it: Chlorocebus sabaeus.
The next test concerns Pseudomonas aeruginosa. Nature of the test: Antibacterial activity against Pseudomonas aeruginosa. It is filed as functional.
In test [6] the test system is Mycobacterium tuberculosis. Description: microbe, parasite or virus in culture. The note with it: H37Rv, 168 h.
A further test relates to Bacillus anthracis. Description: microbe, parasite or virus in culture.
The subject of test [7] is Escherichia coli. Description: Antibacterial activity against Escherichia coli K12. The format is functional. The conditions noted are these: K-12.
For a further test, the system named is Klebsiella pneumoniae. Description: Antibacterial activity against Klebsiella pneumoniae. The format is functional.
The target of the next test is T4, Epoxide hydrolase B (Mycobacterium tuberculosis, UniProt P95276).
T4 sequence (P95276 whole entry): T1 sequence (whole entry)
Description: Inhibition of Mycobacterium tuberculosis recombinant EphB expressed in Escherichia coli BL21 using CMNPC as substrate after 30 mins by fluorescent assay relative to control.

The target of test [8] is T5, Hydrolase, alpha/beta hydrolase fold family (Mycobacterium tuberculosis, UniProt O69638).
T5 sequence (O69638 whole entry): T3 sequence (whole entry)
Description: Inhibition of Mycobacterium tuberculosis recombinant EphE expressed in Escherichia coli BL21 using CMNPC as substrate after 30 mins by fluorescent assay relative to control.

One may read the inhibition as the relative decrease from the control value, in per cent. Usually IC50 stands for the concentration at which inhibition is half-maximal. Consider `CCCOCCNC(=O)NC12CC3CC(CC(C3)C1)C2`, for which the MIC in test [1] is 200 µg/mL (≈ 713 µM); with Escherichia coli [2], 200 µg/mL (≈ 713 µM); against Staphylococcus aureus it was above 200 µg/mL; against Enterococcus faecium, above 200 µg/mL; against Enterococcus faecalis, above 200 µg/mL; with Pseudomonas aeruginosa, above 200 µg/mL. Also, the MIC is 25 µg/mL (≈ 89.2 µM) in [6], above 200 µg/mL against Bacillus anthracis, above 200 µg/mL with Escherichia coli [7] and above 200 µg/mL against Klebsiella pneumoniae. Also, the figures for the inhibition in test [3] and in [5] were 16.6% and 35%, respectively. The values for the IC50 (in test [4]; with Vero) were 243 nM and 265 µg/mL (≈ 944 µM), respectively.

`CCCCCCNC(=O)NC1C2CC3CC(C2)CC1C3` (configuration not stated): the MIC is 6.25 µg/mL (≈ 22.4 µM) in test [1]; above 200 µg/mL in the test with Escherichia coli [2]; above 200 µg/mL against Staphylococcus aureus; above 200 µg/mL against Enterococcus faecium; above 200 µg/mL in the test with Enterococcus faecalis; above 200 µg/mL in the test with Pseudomonas aeruginosa. Besides, the MIC in test [6] is 0.01 µg/mL (≈ 0.0359 µM); against Bacillus anthracis, above 200 µg/mL; in the test with Escherichia coli [7] it was above 200 µg/mL; with Klebsiella pneumoniae it was above 200 µg/mL. In addition, the inhibition in test [3] amounted to 32%; in [5], 100%. Also, the IC50 in [4] turned out to be 1 nM; with Vero, 175 µg/mL (≈ 628 µM).

Turning to `CC(=O)C1CCC(NC(=O)Nc2ccc(OC(F)(F)F)cc2)CC1` (configuration not stated), the half-inhibitory concentration (IC50) came out at 31600 nM at Epoxide hydrolase B and 12 nM in [4].

On to `CC(C)(C)NC(=O)NC1C2CC3CC(C2)CC1C3` (configuration not stated), for which the MIC (in test [1]; in the test on Escherichia coli [2]; against Staphylococcus aureus; against Enterococcus faecium; in the test with Enterococcus faecalis; against Pseudomonas aeruginosa) was above 200 µg/mL each time. Also, the MIC in [6] is 12.5 µg/mL (≈ 49.9 µM); against Bacillus anthracis, above 200 µg/mL; in the test on Escherichia coli [7], above 200 µg/mL; with Klebsiella pneumoniae it was above 200 µg/mL. Besides, the inhibition in test [3] is 20.7%; in test [5], 55.4%. The IC50 turned out to be 24.2 nM in [4] and 372 µg/mL (≈ 1490 µM) in the test with Vero.

Turning to `Cc1ccc(NC(=O)NC2CCCCCCC2)cc1Cl`, the MIC was 0.8 µg/mL (≈ 2.71 µM) in test [1]; above 200 µg/mL in the test on Escherichia coli [2]; above 200 µg/mL with Staphylococcus aureus; above 200 µg/mL against Enterococcus faecium; above 200 µg/mL against Enterococcus faecalis; above 200 µg/mL with Pseudomonas aeruginosa. In addition, the MIC in test [6] was 0.01 µg/mL (≈ 0.0339 µM); in the test on Bacillus anthracis, above 200 µg/mL; against Escherichia coli [7], above 200 µg/mL; in the test with Klebsiella pneumoniae it was above 200 µg/mL. Moreover, the inhibition is 83.6% in test [3] and 98.2% in test [5]. Besides, the half-maximal inhibitory concentration (IC50) in [4] is 0.4 nM; in the test with Vero it was above 400 µg/mL.

As to `CC(C)CCOc1ccc(NC(=S)Nc2ccc(OCCC(C)C)cc2)cc1` [TIOCARLIDE], the MIC (in test [1]; against Escherichia coli [2]; against Staphylococcus aureus; in the test with Enterococcus faecium; in the test with Enterococcus faecalis; in the test on Pseudomonas aeruginosa) was above 200 µg/mL each time. Moreover, the MIC in [6] is 2.5 µg/mL (≈ 6.24 µM); in the test with Bacillus anthracis, above 200 µg/mL; in the test on Escherichia coli [7], above 200 µg/mL; in the test on Klebsiella pneumoniae, above 200 µg/mL. The inhibition entry in test [3] is “inactive”. Moreover, the IC50 in test [8] turned out to be 22 nM.

As for `COCCCNC(=O)NC12CC3CC(CC(C3)C1)C2`, the MIC is 200 µg/mL (≈ 751 µM) in test [1]; above 200 µg/mL against Escherichia coli [2]; above 200 µg/mL against Staphylococcus aureus; above 200 µg/mL against Enterococcus faecium; above 200 µg/mL against Enterococcus faecalis; above 200 µg/mL in the test with Pseudomonas aeruginosa. For the same molecule, the MIC in test [6] is 100 µg/mL (≈ 375 µM); with Bacillus anthracis, above 200 µg/mL; against Escherichia coli [7], above 200 µg/mL; with Klebsiella pneumoniae, above 200 µg/mL. Besides, the inhibition in test [3] was 23.7%; in test [5], 35.9%. The results for the IC50 (in [4]; in the test on Vero) were 386 nM and 20.4 µg/mL (≈ 76.6 µM), respectively.

Consider `CC(C)NC(=O)NC1C2CC3CC(C2)CC1C3` (configuration not stated), for which the MIC was above 100 µg/mL in [1]; above 200 µg/mL against Escherichia coli [2]; above 200 µg/mL against Staphylococcus aureus; above 200 µg/mL in the test with Enterococcus faecium; above 200 µg/mL against Enterococcus faecalis; above 200 µg/mL in the test on Pseudomonas aeruginosa. Moreover, the MIC in test [6] was 50 µg/mL (≈ 212 µM); against Bacillus anthracis, above 200 µg/mL; in the test on Escherichia coli [7], above 200 µg/mL; in the test with Klebsiella pneumoniae, above 200 µg/mL. The inhibition in [3] is 27.2%; in test [5] it was 57.3%. Moreover, the concentration for half-maximal inhibition (IC50) in [4] is 84.4 nM; with Vero, 23.4 µg/mL (≈ 99 µM).

For the molecule `CC(=O)c1cccc(NC(=O)NC2C3CC4CC(C3)CC2C4)c1` (configuration not stated), the MIC in [1] is 6.25 µg/mL (≈ 20 µM); in the test with Escherichia coli [2], above 200 µg/mL; against Staphylococcus aureus, above 200 µg/mL; against Enterococcus faecium, above 200 µg/mL; with Enterococcus faecalis it was above 200 µg/mL; in the test on Pseudomonas aeruginosa, above 200 µg/mL. Besides, the MIC in test [6] is 0.1 µg/mL (≈ 0.32 µM); against Bacillus anthracis it was above 200 µg/mL; in the test on Escherichia coli [7], above 200 µg/mL; in the test on Klebsiella pneumoniae it was above 200 µg/mL. For the same molecule, the inhibition in [3] worked out at 80.6%; in test [5] it was 31.4%. Moreover, the 50% inhibitory concentration (IC50) in test [4] is 0.5 nM; in the test with Vero, 9.7 µg/mL (≈ 31 µM).
